Columns and labels:
BRD4 BD1 = target: T1, BRD4 BD1 (Homo sapiens, UniProt O60885); experiment: NanoBRET bromodomain assay, NanoLuc-BRD4-BD1 in HEK293 cells; type: binding
T1 construct: HEK293 cells were transfected using NanoLuc-BRD4-BD1 or NanoLuc-BRD4-BD2 fusion vectors
Procedure: Exemplary compounds of the disclosure are active against BRD4 BD2 and selective over BRD4 BD1. BRD4 is a representative example of the BET family, as the binding sites of all BET family members are structurally similar. […] IC50s and fold selectivity's are determined as described below and are represented in Table 1.
(§1) Plates were then incubated at 37° C.+5% CO2 incubator for 2 hours.
(§2) Fold Selectivity Calculated (IC50 BD1/IC50 BD2).

BRD4 BD2 = target: T2, BRD4 BD2 (Homo sapiens, UniProt O60885); experiment: NanoBRET bromodomain assay, NanoLuc-BRD4-BD2 in HEK293 cells; type: binding; conditions: for Fold Selectivity BRD4 BD1/BD2: IC50 BD1/IC50 BD2, qualitative if an IC50 is at the upper limit
T2 construct: HEK293 cells were transfected using NanoLuc-BRD4-BD1 or NanoLuc-BRD4-BD2 fusion vectors
Procedure: as §1, §2

| Compound | IC50 (BRD4 BD1) [nM] | IC50 (BRD4 BD2) [nM] | Fold Selectivity BRD4 BD1/BD2 (BRD4 BD2) |
| --- | --- | --- | --- |
| Cc1cccc(C)c1Oc1cn(C)c(=O)cc1-c1cn(C)c(=O)c2[nH]c(-c3ccc(CO)cc3F)cc12 [Example 58, 4-(5-(2,6-dimethylphenoxy)-1-methyl-2-oxo-1,2-dihydropyridin-4-yl)-2-(2-fluoro-4-(hydroxymethyl)phenyl)-6-methyl-1,6-dihydro-7H-pyrrolo[2,3-c]pyridin-7-one] | > 1000 | < 10 | xxxx (Fold >1000) |
| Cn1cc(-c2cc(=O)n(CCOC(F)(F)F)cc2-c2ccccc2)c2cc(-c3cnn(C(F)(F)F)c3)[nH]c2c1=O [Example 59, 6-methyl-4-(2-oxo-5-phenyl-1-(2-(trifluoromethoxy)ethyl)-1,2-dihydropyridin-4-yl)-2-(1-(trifluoromethyl)-1H-pyrazol-4-yl)-1,6-dihydro-7H-pyrrolo[2,3-c]pyridin-7-one] | > 1000 | 50 to 200 | xx (Fold >50 and ≤200) |
| CN(C)CCn1cc(-c2ccccc2)c(-c2cn(C)c(=O)c3[nH]c(-c4cnn(C(F)(F)F)c4)cc23)cc1=O.O=CO [Example 61, 4-(1-(2-(dimethylamino)ethyl)-2-oxo-5-phenyl-1,2-dihydropyridin-4-yl)-6-methyl-2-(1-(trifluoromethyl)-1H-pyrazol-4-yl)-1,6-dihydro-7H-pyrrolo[2,3-c]pyridin-7-one formate] | 50 to 500 | < 10 | x (Fold >2 and ≤50) |
| Cn1cc(-c2cc(=O)n(C3CC(O)C3)cc2-c2ccccc2)c2cc(-c3cnn(C(F)(F)F)c3)[nH]c2c1=O (stereo not drawn) [Example 64, 4-(1-(3-hydroxycyclobutyl)-2-oxo-5-phenyl-1,2-dihydropyridin-4-yl)-6-methyl-2-(1-(trifluoromethyl)-1H-pyrazol-4-yl)-1,6-dihydro-7H-pyrrolo[2,3-c]pyridin-7-one] | 500 to 1000 | 50 to 200 | x (Fold >2 and ≤50) |
| CC(C)n1cc(-c2[nH]c3c(=O)n(C)cc(-c4cc(=O)n(C)cc4-c4ccccc4)c3c2F)cn1 [Example 65, 4-[3-fluoro-2-(1-isopropylpyrazol-4-yl)-6-methyl-7-oxo-1H-pyrrolo[2,3-c]pyridin-4-yl]-1-methyl-5-phenylpyridin-2-one] | > 1000 | 10 to 50 | xxx (Fold >200 and ≤1000) |
| Cn1cc(-c2cccnc2)c(-c2cn(C)c(=O)c3[nH]c(-c4cnn(C(F)(F)F)c4)c(F)c23)cc1=O [Example 67, 3-fluoro-6-methyl-4-(1-methyl-6-oxo-1,6-dihydro-[3,3′-bipyridin]-4-yl)-2-(1-(trifluoromethyl)-1H-pyrazol-4-yl)-1,6-dihydro-7H-pyrrolo[2,3-c]pyridin-7-one] | > 1000 | 10 to 50 | xxx (Fold >200 and ≤1000) |
| Cn1cc(-c2c(-c3ccccc3)cn(CCO)c(=O)c2C(F)(F)F)c2cc(-c3cnn(C(F)(F)F)c3)[nH]c2c1=O [Example 68, 4-(1-(2-hydroxyethyl)-2-oxo-5-phenyl-3-(trifluoromethyl)-1,2-dihydropyridin-4-yl)-6-methyl-2-(1-(trifluoromethyl)-1H-pyrazol-4-yl)-1,6-dihydro-7H-pyrrolo[2,3-c]pyridin-7-one] | > 1000 | 200 to 1000 | x (Fold >2 and ≤50) |
| Cn1cc(-c2ccccc2)c(-c2cn(C)c(=O)c3[nH]c(-c4ccc(F)c(C(C)(C)O)c4)cc23)cc1=O [Example 69] | 500 to 1000 | < 10 | xxx (Fold >200 and ≤1000) |
| CC(C)n1cc(-c2cc3c(-c4cc(=O)n(C)cc4-c4cccc(CS(C)(=O)=O)c4)cn(C)c(=O)c3[nH]2)cn1 [Example 72] | > 1000 | 200 to 1000 | x (Fold >2 and ≤50) |
| COCCOc1cccc(-c2cn(C)c(=O)cc2-c2cn(C)c(=O)c3[nH]c(-c4cnn(C(C)C)c4)cc23)c1 [Example 74] | > 1000 | 10 to 50 | xx (Fold >50 and ≤200) |
| Cn1cc(-c2cccc(OCCO)c2)c(-c2cn(C)c(=O)c3[nH]c(-c4ccc(F)cc4F)cc23)cc1=O [Example 76] | > 1000 | 10 to 50 | xxx (Fold >200 and ≤1000) |
| CC(C)n1cc(-c2cc3c(-c4cc(=O)n(C)cc4-c4cccc(CN5CCOCC5)c4)cn(C)c(=O)c3[nH]2)cn1 [Example 78] | > 1000 | 10 to 50 | xxx (Fold >200 and ≤1000) |
| Cn1cc(-c2ccccc2)c(-c2cn(C)c(=O)c3[nH]c(-c4cccnc4)cc23)cc1=O [Example 80] | 50 to 500 | < 10 | xx (Fold >50 and ≤200) |
| Cn1ccc(-c2cc3c(-c4cc(=O)n(C)cc4-c4ccccc4)cn(C)c(=O)c3[nH]2)cc1=O [Example 81] | > 1000 | 50 to 200 | xx (Fold >50 and ≤200) |
| COCc1cccc(-c2cc3c(-c4cc(=O)n(C)cc4-c4ccccc4)cn(C)c(=O)c3[nH]2)c1 [Example 85] | > 1000 | < 10 | xxxx (Fold >1000) |
| Cc1cc(-c2cc3c(-c4cc(=O)n(C)cc4-c4ccc(S(C)(=O)=O)cc4)cn(C)c(=O)c3[nH]2)cc(C)n1 [Example 86] | > 1000 | 200 to 1000 | x (Fold >2 and ≤50) |

Second part, the molecule after the results:

| IC50 (BRD4 BD1) [nM] | IC50 (BRD4 BD2) [nM] | Fold Selectivity BRD4 BD1/BD2 (BRD4 BD2) | Compound |
| --- | --- | --- | --- |
| > 1000 | 10 to 50 | xxx (Fold >200 and ≤1000) | Cn1cc(-c2cc(=O)n(CCO)cc2-c2ccccc2)c2cc(-c3cnn(C(F)(F)F)c3)[nH]c2c1=O [Example 60, 4-(1-(2-hydroxyethyl)-2-oxo-5-phenyl-1,2-dihydropyridin-4-yl)-6-methyl-2-(1-(trifluoromethyl)-1H-pyrazol-4-yl)-1,6-dihydro-7H-pyrrolo[2,3-c]pyridin-7-one] |
| > 1000 | < 10 | xxxx (Fold >1000) | Cn1cc(-c2cc(=O)n(CCN3CCOCC3)cc2-c2ccccc2)c2cc(-c3cnn(C(F)(F)F)c3)[nH]c2c1=O [Example 62, 6-methyl-4-(1-(2-morpholinoethyl)-2-oxo-5-phenyl-1,2-dihydropyridin-4-yl)-2-(1-(trifluoromethyl)-1H-pyrazol-4-yl)-1,6-dihydro-7H-pyrrolo[2,3-c]pyridin-7-one] |
| 500 to 1000 | < 10 | xx (Fold >50 and ≤200) | CN1CCC(n2cc(-c3ccccc3)c(-c3cn(C)c(=O)c4[nH]c(-c5cnn(C(F)(F)F)c5)cc34)cc2=O)CC1 [Example 63, 6-methyl-4-(1-(1-methylpiperidin-4-yl)-2-oxo-5-phenyl-1,2-dihydropyridin-4-yl)-2-(1-(trifluoromethyl)-1H-pyrazol-4-yl)-1,6-dihydro-7H-pyrrolo[2,3-c]pyridin-7-one] |
| > 1000 | 200 to 1000 | x (Fold >2 and ≤50) | Cn1cc(-c2cccnc2)c(-c2cn(C)c(=O)c3[nH]c(-c4cnn(C(F)(F)F)c4)cc23)cc1=O [Example 66, 6-methyl-4-(1-methyl-6-oxo-1,6-dihydro-[3,3′-bipyridin]-4-yl)-2-(1-(trifluoromethyl)-1H-pyrazol-4-yl)-1,6-dihydro-7H-pyrrolo[2,3-c]pyridin-7-one] |
| > 1000 | 200 to 1000 | x (Fold >2 and ≤50) | Cn1cc(-c2ccccc2C(F)F)c(-c2cn(C)c(=O)c3[nH]c(-c4ccc(F)cc4F)cc23)cc1=O [Example 70] |
| > 1000 | 50 to 200 | xx (Fold >50 and ≤200) | CC(C)c1cc(-c2cc3c(-c4cc(=O)n(C)cc4-c4ccccc4)cn(C)c(=O)c3[nH]2)ccc1F [Example 71] |
| > 1000 | 200 to 1000 | x (Fold >2 and ≤50) | Cn1cc(-c2cccc(CN3CCNCC3)c2)c(-c2cn(C)c(=O)c3[nH]c(-c4ccc(F)cc4F)cc23)cc1=O [Example 73] |
| > 1000 | 200 to 1000 | x (Fold >2 and ≤50) | CC(C)n1cc(-c2cc3c(-c4cc(=O)n(C)cc4-c4cccc(OCCO)c4)cn(C)c(=O)c3[nH]2)cn1 [Example 75] |
| > 1000 | 50 to 200 | xx (Fold >50 and ≤200) | Cn1cc(-c2cccc(CS(C)(=O)=O)c2)c(-c2cn(C)c(=O)c3[nH]c(-c4ccc(F)cc4F)cc23)cc1=O [Example 77] |
| > 1000 | 10 to 50 | xxx (Fold >200 and ≤1000) | Cn1cc(-c2ccccc2Cl)c(-c2cn(C)c(=O)c3[nH]c(-c4ccc(F)cc4F)cc23)cc1=O [Example 79] |
| > 1000 | 50 to 200 | xx (Fold >50 and ≤200) | Cn1cc(-c2ccccc2)c(-c2cn(C)c(=O)c3[nH]c(-c4c(F)cccc4F)cc23)cc1=O [Example 82] |
| 500 to 1000 | < 10 | xx (Fold >50 and ≤200) | Cn1cc(-c2ccccc2)c(-c2cn(C)c(=O)c3[nH]c(-c4cccc(S(C)(=O)=O)c4)cc23)cc1=O [Example 83] |
| 50 to 500 | < 10 | xx (Fold >50 and ≤200) | Cn1cc(-c2ccccc2)c(-c2cn(C)c(=O)c3[nH]c(-c4cccc(C5COC5)c4)cc23)cc1=O [Example 84] |
| > 1000 | > 1000 | — (Fold ≥0 and ≤2) | Cc1cccc(C)c1Oc1cn(C2CC2)c(=O)cc1-c1cn(C)c(=O)c2[nH]c(-c3cccc(F)c3F)cc12 [Example 87] |
| > 1000 | 10 to 50 | xxx (Fold >200 and ≤1000) | Cc1cccc(C)c1Oc1cn(C)c(=O)cc1-c1cn(C)c(=O)c2[nH]c(-c3cc(F)c(F)cc3F)cc12 [Example 88] |
